Patent US12157746B2, “Tetrahydro-1H-pyrazino[2,1-a]isoindolylquinoline compounds for the treatment of autoimmune disease” (F. HOFFMANN-LA ROCHE AG, priority 2018, dated 2024)

Columns and labels:
[1] = target: T1, human TLR7 (Homo sapiens, UniProt Q9NYK1); assay: HEK293-Blue-hTLR-7 cells assay; format: cell-based; conditions: HEK293-Blue-hTLR7 cells, R848 stimulation, 20 hrs, SEAP reporter; read-out: HEK/hTLR7 IC50
T1 sequence (Q9NYK1 27-1049): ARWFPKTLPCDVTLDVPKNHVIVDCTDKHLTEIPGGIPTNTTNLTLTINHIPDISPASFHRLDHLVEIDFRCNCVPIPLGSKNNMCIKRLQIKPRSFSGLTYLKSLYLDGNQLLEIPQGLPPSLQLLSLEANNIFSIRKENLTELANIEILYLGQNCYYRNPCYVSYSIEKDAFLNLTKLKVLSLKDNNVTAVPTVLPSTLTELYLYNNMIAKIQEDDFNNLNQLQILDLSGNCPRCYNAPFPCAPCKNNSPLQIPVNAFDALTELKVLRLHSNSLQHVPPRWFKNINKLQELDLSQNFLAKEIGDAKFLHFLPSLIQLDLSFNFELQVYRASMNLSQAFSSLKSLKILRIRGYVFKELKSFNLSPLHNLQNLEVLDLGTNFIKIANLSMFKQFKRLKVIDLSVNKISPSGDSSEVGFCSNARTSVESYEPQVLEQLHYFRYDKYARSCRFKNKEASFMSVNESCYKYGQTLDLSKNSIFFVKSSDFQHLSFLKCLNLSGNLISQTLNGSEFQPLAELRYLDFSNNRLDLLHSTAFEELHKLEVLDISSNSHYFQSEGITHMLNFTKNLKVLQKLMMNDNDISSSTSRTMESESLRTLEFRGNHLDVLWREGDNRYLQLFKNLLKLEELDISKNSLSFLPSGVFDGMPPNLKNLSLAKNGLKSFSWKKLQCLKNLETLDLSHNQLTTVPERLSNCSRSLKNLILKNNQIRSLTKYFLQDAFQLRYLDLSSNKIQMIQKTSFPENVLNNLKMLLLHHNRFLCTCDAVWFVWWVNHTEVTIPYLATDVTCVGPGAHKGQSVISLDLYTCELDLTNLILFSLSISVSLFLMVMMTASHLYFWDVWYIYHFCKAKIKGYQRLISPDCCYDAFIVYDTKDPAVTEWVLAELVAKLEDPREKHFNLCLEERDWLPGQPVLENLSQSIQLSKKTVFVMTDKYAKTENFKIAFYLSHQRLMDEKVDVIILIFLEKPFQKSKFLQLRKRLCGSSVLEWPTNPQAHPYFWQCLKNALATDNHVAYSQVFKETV
From the text: HEK293-Blue-hTLR-7 Cells Assay:
A stable HEK293-Blue-hTLR-7 cell line was purchased from InvivoGen (Cat. #: hkb-htlr7, San Diego, California, USA). These cells were originally designed for studying the stimulation of human TLR7 by monitoring the activation of NF-κB. A SEAP (secreted embryonic alkaline phosphatase) reporter gene was placed under the control of the IFN-β minimal promoter fused to five NF-κB and AP-1-binding sites. The SEAP was induced by activating NF-κB and AP-1 via stimulating HEK-Blue hTLR7 cells with TLR7 ligands. Therefore the reporter expression was declined by TLR7 antagonist under the stimulation of a ligand, such as R848 (Resiquimod), for incubation of 20 hrs. The cell culture supernatant SEAP reporter activity was determined using QUANTI-Blue™ kit (Cat. #: rep-qb1, Invivogen, San Diego, Ca. USA) at a wavelength of 640 nm, a detection medium that turns purple or blue in the presence of alkaline phosphatase.
HEK293-Blue-hTLR7 cells were incubated at a density of 250,000˜450,000 cells/mL in a volume of 170 μL in a 96-well plate in Dulbecco's Modified Eagle's medium (DMEM) containing 4.5 g/L glucose, 50 U/mL penicillin, […], […], 2 mM L-glutamine, 10% (v/v) heat-inactivated fetal bovine serum with addition of 20 μL test compound 1n a serial dilution in the presence of final DMSO at 1% and 10 μL of 20 uM R848 in above DMEM, perform incubation under 37° C. in a CO2 incubator for 20 hrs. Then 20 μL of the supernatant from each well was incubated with 180 μL Quanti-blue substrate solution at 37° C. for 2 hrs and the absorbance was read at 620-655 nm using a spectrophotometer. The signaling pathway that TLR7 activation leads to downstream NF-κB activation has been widely accepted, and therefore similar reporter assay was modified for evaluating TLR7 antagonist.

[2] = Human microsomal stability assay; format: in vitro ADME; conditions: human liver microsomes 0.5 mg/mL, 37° C., pH 7.4, NADPH regenerating system, 0-30 minutes
Experimental: Human Microsomal Stability Assay
Human liver microsomes (Cat. NO.: 452117, Corning, USA) were preincubated with test compound for 10 minutes at 37° C. in 100 mM potassium phosphate buffer, pH 7.4. The reactions were initiated by adding NADPH regenerating system. The final incubation mixtures contained […] test compound, 0.5 mg/mL liver microsomal protein, 1 mM MgCl2, 1 mM NADP, 1 unit/mL isocitric dehydrogenase and 6 mM isocitric acid in 100 mM potassium phosphate buffer, pH 7.4. After incubation times of 0, 3, 6, 9, 15 and 30 minutes at 37° C., 300 μL of cold ACN (including internal standard) was added to 100 μL incubation mixture to terminate the reaction. Following precipitation and centrifugation, 100 μL supernatant will be taken out and added 300 uL water. The amount of compound remaining in the samples was determined by LC-MS/MS. Controls of no NADPH regenerating system at zero and 30 minutes were also prepared and analyzed. The results were categorized as: low (<7.0 mLJmin/kg), medium (7.0-16.2 mL/min/kg) and high (16.2-23.2 mLJmin/kg).

Row | IC50 [1] [nM] | CL (h) [2] [mL/min/kg] | Compound
1 | < 3.2 | 6.6 | C[C@@H]1CN(c2ccc(C#N)c3ncsc23)C[C@@H]2c3ccc(N4CCNCC4)cc3CN12 [Example 6, 7-[(4R,10bS)-4-methyl-8-piperazin-1-yl-3,4,6,10b-tetrahydro-1H-pyrazino[2,1-a]isoindol-2-yl]-1,3-benzothiazole-4-carbonitrile]
2 | 15.6 | 8.8 | C[C@@H]1CN(c2ccc(C#N)c3ncccc23)C[C@@H]2c3ccc(N4C[C@@H](F)[C@@H](N)C4)cc3CN12 [Example 46, 5-[(4R,10bS)-8-[(3S,4R)-3-amino-4-fluoro-pyrrolidin-1-yl]-4-methyl-3,4,6,10b-tetrahydro-1H-pyrazino[2,1-a]isoindol-2-yl]quinoline-8-carbonitrile]
3 | < 3.2 | 8.0 | C[C@@H]1CN(c2ccc(C#N)c3ncccc23)C[C@@H]2c3ccc(OCCN(C)C)cc3CN12 [Example 25, 5-[(4R,10bS)-8-[2-(dimethylamino)ethoxy]-4-methyl-3,4,6,10b-tetrahydro-1H-pyrazino[2,1-a]isoindol-2-yl]quinoline-8-carbonitrile]
4 | 8.5 | 8.1 | C[C@@H]1CN(c2ccc(C#N)c3ncccc23)C[C@@H]2c3ccc(N4CCOC5CNCC54)cc3CN12 (stereo partly drawn) [Example 52, 5-[(4R,10bS)-8-(3,4a,5,6,7,7a-hexahydro-2H-pyrrolo[3,4-b][1,4]oxazin-4-yl)-4-methyl-3,4,6,10b-tetrahydro-1H-pyrazino[2,1-a]isoindol-2-yl]quinoline-8-carbonitrile]
5 | 3.1 | 6.4 | [2H]c1ccc2c(N3C[C@@H](C)N4Cc5cc(N6CC(C)(N)C6)ccc5[C@H]4C3)ccc(C#N)c2n1 [Example 92, 5-[(4R,10bS)-8-(3-amino-3-methyl-azetidin-1-yl)-4-methyl-3,4,6,10b-tetrahydro-1H-pyrazino[2,1-a]isoindol-2-yl]-2-deuterio-quinoline-8-carbonitrile]
6 | < 3.2 | – | C[C@@H]1CN(c2ccc(C#N)c3ncccc23)C[C@@H]2c3ccc(N4CC5(CNCCO5)C4)cc3CN12 [Example 35, 5-[(4R,10bS)-4-methyl-8-(5-oxa-2,8-diazaspiro[3.5]nonan-2-yl)-3,4,6,10b-tetrahydro-1H-pyrazino[2,1-a]isoindol-2-yl]quinoline-8-carbonitrile]
7 | < 3.2 | – | C[C@@H]1CN(c2ccc(C#N)c3ncccc23)C[C@@H]2c3ccc(N4CCNC[C@@H]4CO)cc3CN12 [Example 10, 5-[(4R,10bS)-8-[(2R)-2-(hydroxymethyl)piperazin-1-yl]-4-methyl-3,4,6,10b-tetrahydro-1H-pyrazino[2,1-a]isoindol-2-yl]quinoline-8-carbonitrile]
8 | 8.9 | – | C[C@@H]1CN(c2ccc(C#N)c3ncccc23)C[C@@H]2c3ccc(N4CCNC[C@@H](O)C4)cc3CN12 [Example 53B, 5-[(4R,10bS)-8-[(6R)-6-hydroxy-1,4-diazepan-1-yl]-4-methyl-3,4,6,10b-tetrahydro-1H-pyrazino[2,1-a]isoindol-2-yl]quinoline-8-carbonitrile]
9 | 16.1 | – | C[C@@H]1CN(c2ccc(C#N)c3ncccc23)C[C@@H]2c3ccc(N4CCNC[C@@](C)(O)C4)cc3CN12 [Example 55B, 5-[(4R,10bS)-8-[(6R)-6-hydroxy-6-methyl-1,4-diazepan-1-yl]-4-methyl-3,4,6,10b-tetrahydro-1H-pyrazino[2,1-a]isoindol-2-yl]quinoline-8-carbonitrile]
10 | 4.1 | – | C[C@@H]1CN(c2ccc(C#N)c3ncccc23)C[C@@H]2c3ccc(N[C@H]4CNC[C@@H]4F)cc3CN12 [Example 31, 5-[(4R,10bS)-8-[[(3S,4S)-4-fluoropyrrolidin-3-yl]amino]-4-methyl-3,4,6,10b-tetrahydro-1H-pyrazino[2,1-a]isoindol-2-yl]quinoline-8-carbonitrile]
11 | < 3.2 | – | C[C@@H]1CN(c2ccc(C#N)c3ncccc23)C[C@@H]2c3ccc(N[C@@H]4CNC[C@H]4F)cc3CN12 [Example 33, 5-[(4R,10bS)-8-[[(3R,4R)-4-fluoropyrrolidin-3-yl]amino]-4-methyl-3,4,6,10b-tetrahydro-1H-pyrazino[2,1-a]isoindol-2-yl]quinoline-8-carbonitrile]
12 | < 3.2 | – | C[C@@H]1CN(c2ccc(C#N)c3ncccc23)C[C@@H]2c3ccc(C4CNC4)cc3CN12 [Example 29, 5-[(4R,10bS)-8-(azetidin-3-yl)-4-methyl-3,4,6,10b-tetrahydro-1H-pyrazino[2,1-a]isoindol-2-yl]quinoline-8-carbonitrile]
13 | < 3.2 | – | CN[C@H]1CN(c2ccc3c(c2)CN2[C@H](C)CN(c4ccc(C#N)c5ncccc45)C[C@H]32)C[C@@H]1O [Example 42, 5-[(4R,10bS)-8-[(3S,4S)-3-hydroxy-4-(methylamino)pyrrolidin-1-yl]-4-methyl-3,4,6,10b-tetrahydro-1H-pyrazino[2,1-a]isoindol-2-yl]quinoline-8-carbonitrile]
14 | 4.9 | – | C[C@@H]1CN(c2ccc(C#N)c3ncccc23)C[C@@H]2c3ccc(N4CC(N)C5(COC5)C4)cc3CN12 (stereo partly drawn) [Example 18, 5-[(4R,10bS)-8-(5-amino-2-oxa-7-azaspiro[3.4]octan-7-yl)-4-methyl-3,4,6,10b-tetrahydro-1H-pyrazino[2,1-a]isoindol-2-yl]quinoline-8-carbonitrile]
15 | 14 | – | C[C@@H]1CN(c2ccc(C#N)n3nccc23)C[C@@H]2c3ccc(N4C[C@H](N)[C@@H](O)C4)cc3CN12 [Example 111, 4-[(4R,10bS)-8-[(3S,4S)-3-amino-4-hydroxy-pyrrolidin-1-yl]-4-methyl-3,4,6,10b-tetrahydro-1H-pyrazino[2,1-a]isoindol-2-yl]pyrazolo[1,5-a]pyridine-7-carbonitrile]
16 | 6.9 | – | C[C@@H]1CN(c2ccc(C#N)c3ncccc23)C[C@@H]2c3ccc(NC4CNCCOC4)cc3CN12 (stereo partly drawn) [Example 56, 5-[(4R,10bS)-4-methyl-8-(1,4-oxazepan-6-ylamino)-3,4,6,10b-tetrahydro-1H-pyrazino[2,1-a]isoindol-2-yl]quinoline-8-carbonitrile]
17 | 22.6 | – | CO[C@H]1CCN(c2ccc3c(c2)CN2[C@H](C)CN(c4ccc(C#N)n5nccc45)C[C@H]32)C[C@H]1N [Example 106, 4-[(4R,10bS)-8-[(3R,4S)-3-amino-4-methoxy-1-piperidyl]-4-methyl-3,4,6,10b-tetrahydro-1H-pyrazino[2,1-a]isoindol-2-yl]pyrazolo[1,5-a]pyridine-7-carbonitrile]
